Laboratory results published in PubChem BioAssay AID330 (DTP/NCI, 2004).
Values joined by “and” are separate entries in the source; they are usually repeats but may differ in a detail not shown here. Equal values may be shown once. Toxic doses and inconclusive results are not listed. Rule for the calls: active = survival T/C of 150% or more; inactive = T/C below 125% in these data.

Tested on: P388 leukemia ip, CD2F1 mice, survival T/C
Experiment: NCI In Vivo Anticancer Drug Screen. Data for tumor model P388 Leukemia (intraperitoneal) in CD2F1 (CDF1) mice
Conditions: endpoint: median survival time, higher = longer survival
How it was run: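 Mice carrying the transplanted tumor received test compound or vehicle. Survival was recorded in each group, and the value is the treated-group measurement divided by that of the vehicle-treated control group.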

[1] = dose: 50.0 mg/kg/injection, schedule: Q01DX009 (ip), vehicle: Klucel (hydroxypropylcellulose) (HPC)
[2] = dose: 100.0 mg/kg/injection, schedule: Q01DX009 (ip), vehicle: Klucel (hydroxypropylcellulose) (HPC)
[3] = dose: 200.0 mg/kg/injection, schedule: Q01DX009 (ip), vehicle: Klucel (hydroxypropylcellulose) (HPC)
[4] = dose: 6.25 mg/kg/injection, schedule: Q01DX009 (ip), vehicle: saline with Tween-80
[5] = dose: 12.5 mg/kg/injection, schedule: Q01DX009 (ip), vehicle: saline with Tween-80
[6] = dose: 50.0 mg/kg/injection, schedule: Q01DX009 (ip), vehicle: saline with Tween-80
[7] = dose: 100.0 mg/kg/injection, schedule: Q01DX009 (ip), vehicle: saline with Tween-80
[8] = dose: 60.0 mg/kg/injection, schedule: Q01DX005 (ip), vehicle: saline with Tween-80
[9] = dose: 120.0 mg/kg/injection, schedule: Q01DX005 (ip), vehicle: saline with Tween-80
[10] = dose: 240.0 mg/kg/injection, schedule: Q01DX005 (ip), vehicle: saline with Tween-80
[11] = dose: 12.5 mg/kg/injection, schedule: Q01DX005 (ip), vehicle: Klucel (hydroxypropylcellulose) (HPC)

Measured: T/C

CN(C)c1ccc(-c2nn(C)c3nc(=O)n(C)c(=O)c-3[n+]2[O-])cc1
inactive: dose: 1.56 mg/kg/injection, schedule: Q01DX001 (ip), vehicle: saline 101 % of control | dose: 3.12 mg/kg/injection, schedule: Q01DX001 (ip), vehicle: saline 103 % of control | dose: 6.25 mg/kg/injection, schedule: Q01DX001 (ip), vehicle: saline 100 % of control and 103 % of control

COc1ccc2[nH]c3c(c2c1)C(=O)c1ccncc1C3=O
inactive: dose: 37.5 mg/kg/injection, schedule: Q04DX002 (ip), vehicle: Klucel (hydroxypropylcellulose) (HPC) 87 % of control | dose: 75.0 mg/kg/injection, schedule: Q04DX002 (ip), vehicle: Klucel (hydroxypropylcellulose) (HPC) 91 % of control

O=C(c1ccccc1)C(C(=O)c1ccccc1)S(=O)(=O)c1ccccc1
inactive: dose: 50.0 mg/kg/injection, schedule: Q01DX005 (ip), vehicle: saline with Tween-80 93 % of control | dose: 100.0 mg/kg/injection, schedule: Q01DX005 (ip), vehicle: saline with Tween-80 93 % of control | dose: 200.0 mg/kg/injection, schedule: Q01DX005 (ip), vehicle: saline with Tween-80 91 % of control

CCCCOC(=O)N(CCF)N=O
inactive: dose: 3.12 mg/kg/injection, schedule: Q01DX001 (ip), vehicle: saline with Tween-80 109 % of control | dose: 6.25 mg/kg/injection, schedule: Q01DX001 (ip), vehicle: saline with Tween-80 118 % of control and 119 % of control | dose: 12.5 mg/kg/injection, schedule: Q01DX001 (ip), vehicle: saline with Tween-80 118 % of control and 119 % of control

COc1ccc(N=Cc2ccccc2P(c2ccccc2)c2ccccc2)cc1
inactive: [1] 101 % of control | [2] 100 % of control | [3] 100 % of control

NC(CSP(=O)(O)O)=NCC12CC3CC(CC(C3)C1)C2
inactive: dose: 3.12 mg/kg/injection, schedule: Q01DX009 (ip), vehicle: saline with Tween-80 100 % of control | [4] 104 % of control | [5] 110 % of control

COc1ccc2c(NCCCCCCCCNc3c4ccc(OC)cc4nc4ccc(Cl)cc34)c3cc(Cl)ccc3nc2c1
inactive: dose: 0.63 mg/kg/injection, schedule: Q01DX009 (ip), vehicle: other 91 % of control | dose: 1.25 mg/kg/injection, schedule: Q01DX009 (ip), vehicle: other 105 % of control | dose: 2.5 mg/kg/injection, schedule: Q01DX009 (ip), vehicle: other 106 % of control | dose: 5.0 mg/kg/injection, schedule: Q01DX009 (ip), vehicle: other 118 % of control

Cn1c2nc(=O)n(-c3ccccc3)c(=O)c-2nc2c1CCCC2
inactive: dose: 3.13 mg/kg/injection, schedule: Q01DX009 (ip), vehicle: saline with Tween-80 100 % of control | [4] 106 % of control and 109 % of control | [5] 106 % of control and 116 % of control | [6] 110 % of control | [7] 115 % of control | dose: 200.0 mg/kg/injection, schedule: Q01DX009 (ip), vehicle: saline with Tween-80 116 % of control

O=C1c2ccccc2C(=O)C1NOCCCCl
inactive: dose: 60.0 mg/kg/injection, schedule: Q01DX005 (ip), vehicle: Klucel (hydroxypropylcellulose) (HPC) 100 % of control | dose: 120.0 mg/kg/injection, schedule: Q01DX005 (ip), vehicle: Klucel (hydroxypropylcellulose) (HPC) 99 % of control | dose: 240.0 mg/kg/injection, schedule: Q01DX005 (ip), vehicle: Klucel (hydroxypropylcellulose) (HPC) 101 % of control

COC(=O)N1c2ccccc2SC1C#N (stereo not drawn)
inactive: [8] 96 % of control | [9] 112 % of control | [10] 106 % of control

C=CCNc1nc(-c2ccc(OC)c(OC)c2)cs1
inactive: dose: 100.0 mg/kg/injection, schedule: Q04DX003 (ip), vehicle: Klucel (hydroxypropylcellulose) (HPC) 100 % of control | dose: 200.0 mg/kg/injection, schedule: Q04DX003 (ip), vehicle: Klucel (hydroxypropylcellulose) (HPC) 103 % of control | dose: 400.0 mg/kg/injection, schedule: Q04DX003 (ip), vehicle: Klucel (hydroxypropylcellulose) (HPC) 100 % of control

O=C(O)C(O)COc1nsnc1N1CCOCC1 (stereo not drawn)
inactive: [1] 107 % of control | [2] 102 % of control | [3] 107 % of control

CCCCc1c(O)nc2nc(-c3ccccc3)c(-c3ccccc3)nn2c1=O
inactive: dose: 3.12 mg/kg/injection, schedule: Q01DX005 (ip), vehicle: Klucel (hydroxypropylcellulose) (HPC) 107 % of control | dose: 6.25 mg/kg/injection, schedule: Q01DX005 (ip), vehicle: Klucel (hydroxypropylcellulose) (HPC) 103 % of control | [11] 94 % of control

CN1c2ccccc2S(=O)(=O)n2c(CCc3ccccc3)nnc21
inactive: dose: 15.0 mg/kg/injection, schedule: Q01DX005 (ip), vehicle: saline with Tween-80 103 % of control | dose: 30.0 mg/kg/injection, schedule: Q01DX005 (ip), vehicle: saline with Tween-80 100 % of control | [8] 87 % of control and 97 % of control | [10] 90 % of control

NC(=O)c1nn[nH]n1
inactive: [1] 97 % of control | [2] 100 % of control

C1CCNCC1.O=C([CH-]C(=O)C(F)(F)F)c1cccs1.O=C([CH-]C(=O)C(F)(F)F)c1cccs1.O=C([CH-]C(=O)C(F)(F)F)c1cccs1.O=C([CH-]C(=O)C(F)(F)F)c1cccs1.[Eu+3]
inactive: [5] 95 % of control | dose: 25.0 mg/kg/injection, schedule: Q01DX009 (ip), vehicle: Klucel (hydroxypropylcellulose) (HPC) 105 % of control | dose: 25.0 mg/kg/injection, schedule: Q01DX009 (ip), vehicle: saline with Tween-80 95 % of control | [1] 109 % of control | [6] 99 % of control | [2] 109 % of control | [7] 89 % of control

NC(CCCCNC(=S)S)C(=O)O.[Na+].[Zn+2] (stereo not drawn)
inactive: [11] 102 % of control | dose: 25.0 mg/kg/injection, schedule: Q01DX005 (ip), vehicle: Klucel (hydroxypropylcellulose) (HPC) 102 % of control | dose: 50.0 mg/kg/injection, schedule: Q01DX005 (ip), vehicle: Klucel (hydroxypropylcellulose) (HPC) 102 % of control and 107 % of control and 114 % of control | dose: 100.0 mg/kg/injection, schedule: Q01DX005 (ip), vehicle: Klucel (hydroxypropylcellulose) (HPC) 109 % of control and 120 % of control (2×)

COC(CNC(=O)Nc1cccnc1)[CH2][Hg][Cl] (stereo not drawn)
inactive: dose: 25.0 mg/kg/injection, schedule: Q04DX003 (ip), vehicle: saline with Tween-80 91 % of control | dose: 50.0 mg/kg/injection, schedule: Q04DX003 (ip), vehicle: saline with Tween-80 116 % of control

CCN(CC)CCCC(C)NC(=O)Cc1cc(O)c2c(c1O)C(=O)c1ccccc1C2=O (stereo not drawn)
inactive: dose: 2.5 mg/kg/injection, schedule: Q01DX009 (ip), vehicle: water 108 % of control and 112 % of control | dose: 5.0 mg/kg/injection, schedule: Q01DX009 (ip), vehicle: water 102 % of control and 110 % of control | dose: 10.0 mg/kg/injection, schedule: Q01DX009 (ip), vehicle: water 99 % of control and 103 % of control and 97 % of control | dose: 20.0 mg/kg/injection, schedule: Q01DX009 (ip), vehicle: water 99 % of control and 110 % of control and 93 % of control | dose: 40.0 mg/kg/injection, schedule: Q01DX009 (ip), vehicle: water 102 % of control and 113 % of control | dose: 80.0 mg/kg/injection, schedule: Q01DX009 (ip), vehicle: water 108 % of control

O=S(=O)(Cc1ccc(Cl)cc1)Cc1ccc(Cl)cc1
inactive: dose: 100.0 mg/kg/injection, schedule: Q04DX003 (ip), vehicle: saline sonified 100 % of control | dose: 200.0 mg/kg/injection, schedule: Q04DX003 (ip), vehicle: saline sonified 100 % of control | dose: 400.0 mg/kg/injection, schedule: Q04DX003 (ip), vehicle: saline sonified 90 % of control

COc1cc2c(c(OC)c1OC)-c1cc3c(cc1C(OC1OC4COC(c5cccs5)OC4C(O)C1O)C1COC(=O)C1C2)OCO3 (stereo not drawn)
inactive: dose: 14.5 mg/kg/injection, schedule: Q01DX005 (ip), vehicle: Klucel (hydroxypropylcellulose) (HPC) 101 % of control | dose: 29.0 mg/kg/injection, schedule: Q01DX005 (ip), vehicle: Klucel (hydroxypropylcellulose) (HPC) 99 % of control | dose: 58.0 mg/kg/injection, schedule: Q01DX005 (ip), vehicle: Klucel (hydroxypropylcellulose) (HPC) 94 % of control | dose: 116.0 mg/kg/injection, schedule: Q01DX005 (ip), vehicle: Klucel (hydroxypropylcellulose) (HPC) 90 % of control

CCN(CC)Cc1c(O)ccc2c3c(c(=O)oc12)CCCC3
inactive: dose: 8.0 mg/kg/injection, schedule: Q01DX009 (ip), vehicle: Klucel (hydroxypropylcellulose) (HPC) 101 % of control | dose: 16.0 mg/kg/injection, schedule: Q01DX009 (ip), vehicle: Klucel (hydroxypropylcellulose) (HPC) 102 % of control | dose: 32.0 mg/kg/injection, schedule: Q01DX009 (ip), vehicle: Klucel (hydroxypropylcellulose) (HPC) 101 % of control

CCOC(=O)C1=CC(C)(C)OC1=O
inactive: [8] 99 % of control and 106 % of control | [9] 110 % of control and 118 % of control | [10] 101 % of control and 124 % of control

CCC[CH2][Sn]([CH2]CCC)([O][P+](=O)C[Si](C)(C)c1ccccc1)[O][P+](=O)C[Si](C)(C)c1ccccc1 (stereo not drawn)
inactive: [8] 108 % of control | [9] 115 % of control | [10] 122 % of control
